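Each compound was tested at five concentrations against cells in 96-well plates for 48 hours. The concentration for 50% growth inhibition is given as GI50. TGI denotes the concentration required for complete inhibition of growth.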
Tests used:
Experiment in all cases: NCI-60 cell line screen, 48 h
786-0 renal = test system: 786-0 renal
A498 renal = test system: A498 renal
A549 NSCLC = test system: A549 NSCLC
ACHN renal = test system: ACHN renal
BT-549 breast = test system: BT-549 breast
CAKI-1 renal = test system: CAKI-1 renal
CCRF-CEM leukemia = test system: CCRF-CEM leukemia
COLO 205 colon = test system: COLO 205 colon
DU-145 prostate = test system: DU-145 prostate
EKVX NSCLC = test system: EKVX NSCLC
HCC-2998 colon = test system: HCC-2998 colon
HCT-116 colon = test system: HCT-116 colon
HCT-15 colon = test system: HCT-15 colon
HL-60(TB) leukemia = test system: HL-60(TB) leukemia
HOP-62 NSCLC = test system: HOP-62 NSCLC
HOP-92 NSCLC = test system: HOP-92 NSCLC
HS 578T breast = test system: HS 578T breast
IGROV1 ovarian = test system: IGROV1 ovarian
K-562 leukemia = test system: K-562 leukemia
KM12 colon = test system: KM12 colon
LOX IMVI melanoma = test system: LOX IMVI melanoma
M14 melanoma = test system: M14 melanoma
MALME-3M melanoma = test system: MALME-3M melanoma
MCF7 breast = test system: MCF7 breast
MDA-MB-231 breast = test system: MDA-MB-231 breast
MDA-MB-435 = test system: MDA-MB-435
MOLT-4 leukemia = test system: MOLT-4 leukemia
NCI-H226 lung = test system: NCI-H226 lung
NCI-H23 lung = test system: NCI-H23 lung
NCI-H460 lung = test system: NCI-H460 lung
NCI-H522 lung = test system: NCI-H522 lung
NCI/ADR-RES ovarian = test system: NCI/ADR-RES ovarian
OVCAR-3 ovarian = test system: OVCAR-3 ovarian
OVCAR-4 ovarian = test system: OVCAR-4 ovarian
OVCAR-5 ovarian = test system: OVCAR-5 ovarian
OVCAR-8 ovarian = test system: OVCAR-8 ovarian
PC-3 prostate = test system: PC-3 prostate
RPMI-8226 leukemia = test system: RPMI-8226 leukemia
RXF 393 renal = test system: RXF 393 renal
SF-268 CNS = test system: SF-268 CNS
SF-295 CNS = test system: SF-295 CNS
SF-539 CNS = test system: SF-539 CNS
SK-MEL-2 melanoma = test system: SK-MEL-2 melanoma
SK-MEL-28 melanoma = test system: SK-MEL-28 melanoma
SK-MEL-5 melanoma = test system: SK-MEL-5 melanoma
SK-OV-3 ovarian = test system: SK-OV-3 ovarian
SN12C renal = test system: SN12C renal
SNB-19 CNS = test system: SNB-19 CNS
SNB-75 CNS = test system: SNB-75 CNS
SR leukemia = test system: SR leukemia
SW-620 colon = test system: SW-620 colon
T-47D breast = test system: T-47D breast
TK-10 renal = test system: TK-10 renal
U251 CNS = test system: U251 CNS
UACC-257 melanoma = test system: UACC-257 melanoma
UACC-62 melanoma = test system: UACC-62 melanoma
UO-31 renal = test system: UO-31 renal

`Cc1cc(Cl)n2c(nc3ccccc32)c1C#N` showed a GI50 (786-0 renal) of 768 nM, a TGI (786-0 renal) of 6480 nM and a GI50 (A498 renal) of 4180 nM. It also gave a TGI (A498 renal) of 17700 nM, a GI50 (A549 NSCLC) of 385 nM and a TGI (A549 NSCLC) of 7430 nM. It also gave a GI50 (ACHN renal) of 567 nM, a TGI (ACHN renal) of 1840 nM and a GI50 (BT-549 breast) of 473 nM. For the same molecule, the TGI (BT-549 breast) was 2280 nM, the GI50 (CAKI-1 renal) was 282 nM and the TGI (CAKI-1 renal) was 1410 nM. It also gave a GI50 (CCRF-CEM leukemia) of 48.5 nM, a GI50 (COLO 205 colon) of 296 nM and a TGI (COLO 205 colon) of 803 nM. The GI50 (DU-145 prostate) was 339 nM, the TGI (DU-145 prostate) was 1200 nM and the GI50 (EKVX NSCLC) was 7840 nM. For the same molecule, the TGI (EKVX NSCLC) was 24800 nM, the GI50 (HCC-2998 colon) was 727 nM and the TGI (HCC-2998 colon) was 2310 nM. For the same molecule, the GI50 (HCT-116 colon) was 39.3 nM, the TGI (HCT-116 colon) was 1400 nM and the GI50 (HCT-15 colon) was 530 nM. For the same molecule, the TGI (HCT-15 colon) was 4120 nM, the GI50 (HL-60(TB) leukemia) was 241 nM and the TGI (HL-60(TB) leukemia) was 1090 nM. The GI50 (HOP-62 NSCLC) was 572 nM, the TGI (HOP-62 NSCLC) was 3450 nM and the GI50 (HOP-92 NSCLC) was 494 nM. For the same molecule, the TGI (HOP-92 NSCLC) was 1620 nM, the GI50 (HS 578T breast) was 1020 nM and the TGI (HS 578T breast) was 23400 nM. The GI50 (IGROV1 ovarian) was 414 nM, the TGI (IGROV1 ovarian) was 1820 nM and the GI50 (K-562 leukemia) was 256 nM. It also gave a TGI (K-562 leukemia) of 61300 nM, a GI50 (KM12 colon) of 341 nM and a TGI (KM12 colon) of 1440 nM. It also gave a GI50 (LOX IMVI melanoma) of 260 nM, a TGI (LOX IMVI melanoma) of 1350 nM and a GI50 (M14 melanoma) of 395 nM. For the same molecule, the TGI (M14 melanoma) was 2040 nM, the GI50 (MALME-3M melanoma) was 858 nM and the TGI (MALME-3M melanoma) was 2630 nM. For the same molecule, the GI50 (MCF7 breast) was 158 nM, the TGI (MCF7 breast) was 2300 nM and the GI50 (MDA-MB-231 breast) was 649 nM. The TGI (MDA-MB-231 breast) was 4580 nM, the GI50 (MDA-MB-435) was 327 nM and the TGI (MDA-MB-435) was 1600 nM. The GI50 (MOLT-4 leukemia) was 1060 nM, the TGI (MOLT-4 leukemia) was 22800 nM and the GI50 (NCI-H226 lung) was 1540 nM. For the same molecule, the TGI (NCI-H226 lung) was 10000 nM, the GI50 (NCI-H23 lung) was 422 nM and the TGI (NCI-H23 lung) was 2550 nM. For the same molecule, the GI50 (NCI-H460 lung) was 600 nM, the TGI (NCI-H460 lung) was 8900 nM and the GI50 (NCI-H522 lung) was 235 nM. The TGI (NCI-H522 lung) was 1220 nM, the GI50 (NCI/ADR-RES ovarian) was 847 nM and the TGI (NCI/ADR-RES ovarian) was 8740 nM. It also gave a GI50 (OVCAR-3 ovarian) of 583 nM, a TGI (OVCAR-3 ovarian) of 1860 nM and a GI50 (OVCAR-4 ovarian) of 971 nM. For the same molecule, the TGI (OVCAR-4 ovarian) was 3430 nM, the GI50 (OVCAR-5 ovarian) was 830 nM and the TGI (OVCAR-5 ovarian) was 10800 nM. The GI50 (OVCAR-8 ovarian) was 597 nM, the TGI (OVCAR-8 ovarian) was 11900 nM and the GI50 (PC-3 prostate) was 383 nM. For the same molecule, the TGI (PC-3 prostate) was 1600 nM, the GI50 (RPMI-8226 leukemia) was 231 nM and the TGI (RPMI-8226 leukemia) was 2450 nM. It also gave a GI50 (RXF 393 renal) of 854 nM, a TGI (RXF 393 renal) of 2660 nM and a GI50 (SF-268 CNS) of 460 nM. For the same molecule, the TGI (SF-268 CNS) was 11400 nM, the GI50 (SF-295 CNS) was 521 nM and the TGI (SF-295 CNS) was 4910 nM. It also gave a GI50 (SF-539 CNS) of 576 nM, a TGI (SF-539 CNS) of 7860 nM and a GI50 (SK-MEL-2 melanoma) of 396 nM. It also gave a TGI (SK-MEL-2 melanoma) of 2250 nM, a GI50 (SK-MEL-28 melanoma) of 1400 nM and a TGI (SK-MEL-28 melanoma) of 6340 nM. The GI50 (SK-MEL-5 melanoma) was 573 nM, the TGI (SK-MEL-5 melanoma) was 3450 nM and the GI50 (SK-OV-3 ovarian) was 3810 nM. For the same molecule, the TGI (SK-OV-3 ovarian) was 15600 nM, the GI50 (SN12C renal) was 499 nM and the TGI (SN12C renal) was 8330 nM. The GI50 (SNB-19 CNS) was 2440 nM, the TGI (SNB-19 CNS) was 15600 nM and the GI50 (SNB-75 CNS) was 1330 nM. For the same molecule, the TGI (SNB-75 CNS) was 8530 nM, the GI50 (SR leukemia) was 348 nM and the TGI (SR leukemia) was 24200 nM. For the same molecule, the GI50 (SW-620 colon) was 55 nM, the TGI (SW-620 colon) was 1790 nM and the GI50 (T-47D breast) was 718 nM. It also gave a TGI (T-47D breast) of 2300 nM, a GI50 (TK-10 renal) of 898 nM and a TGI (TK-10 renal) of 10900 nM. For the same molecule, the GI50 (U251 CNS) was 482 nM, the TGI (U251 CNS) was 3170 nM and the GI50 (UACC-257 melanoma) was 727 nM. It also gave a TGI (UACC-257 melanoma) of 4800 nM, a GI50 (UACC-62 melanoma) of 1140 nM and a TGI (UACC-62 melanoma) of 3660 nM. It also gave a GI50 (UO-31 renal) of 333 nM and a TGI (UO-31 renal) of 1680 nM.

Source: PubChem BioAssay (NCI)
